One series concerns the target recombinant human Bcl-2 (Homo sapiens, UniProt P10415). Put plainly: Fluorescence polarization binding assay for Bcl-2 (Bid-FAM peptide displacement).
For the next series, the system named is PC-3 xenografts. Put plainly: Antitumor activity in PC-3 xenograft model, alone or with X-ray irradiation. It counts as in vivo, nude mice. Particulars: for complete tumor regression: Day 57. How it is done:
An in vivo study of apogossypolone was carried out using a PC-3 xenograft model in nude mice to evaluate the antitumor activity of apogossypolone alone or in combination with X-ray irradiation. Nude mice with established PC-3 xenografts (150 mm^3 in size) were treated with (1) apogossypolone 200 mg/kg p.o. q.d. 5×4 weeks; (2) fractionated X-ray irradiation to the tumor only, with the animal body shielded, at a dose of 2 Gy q.d. 5×3 weeks, total 30 Gy; and (3) a combination of apogossypolone and radiation.

The test system of series [1] is PC-3 prostate cancer cell line. Put plainly: Inhibition of cell growth, MTT assay, PC-3. It counts as cell-based, human. How it is done: (§1) A direct comparison of (−)-gossypol, apogossypol and apogossypolone for their activity in inhibition of cell growth in PC-3 and LnCap prostate cancer cell lines was carried out.
(In general: Tetrazolium dyes change colour on reduction, which living cells bring about.)

The target in another series is T1, recombinant human Bcl-xL (Homo sapiens, UniProt Q07817).
T1 construct: fused to a His-tag without the C-terminus hydrophobic tail; His-tag
Put plainly: Fluorescence polarization binding assay for Bcl-xL (Bak-Flu peptide displacement). An excerpt: Fluorescence polarization (FP)-based binding assays for Bcl-2 and Bcl-xL were developed and optimized using recombinant human Bcl-2 and Bcl-xL proteins, a Bid BH3 peptide labeled with 6-carboxyfluorescein succinimidyl ester (FAM) and Bak BH3 peptide labeled with 6-(fluorescein-5(6)-carboxamido) hexanoic acid (Flu). The FP-based binding assays measure the ability of an inhibitor to displace either Bid-FAM or Bak-Flu peptide from Bcl-2 or Bcl-xL protein, respectively. The dose-dependent binding experiments were carried out with serial dilutions of the tested compounds in DMSO. For the Bcl-2 binding assay, a 5 μl sample of the inhibitor and preincubated recombinant His-fused soluble Bcl-2 protein (120 nM) with Bid-FAM peptide (10 nM) in the assay buffer (100 mM potassium phosphate, pH 7.5; 100 μg/ml bovine gamma globulin; 0.02% sodium azide, purchased from Invitrogen, Life Technologies), were added in Dynex 96-well, black, round-bottom plates (Fisher Scientific), to produce a final volume of 125 μl. […] The polarization values were measured after 3-4 hr incubation, using an ULTRA READER (Tecan U.S. Inc., Research Triangle Park, N.C.). The Ki value was calculated using a modified Cheng-Prusoff equation based upon the Kd value for the Bid-FAM peptide to Bcl-2, the measured IC50 value, and the concentrations of the protein and Bid-FAM. […]

The subject of series [2] is MDA-MB-231 (subclone 2LMP) breast cancer cell line. Put plainly: Cell growth inhibition, MDA-MB-231 (subclone 2LMP). The class given is cell-based, human. How it is done: as §1
(§2) Additional cell growth inhibition studies were performed using the MDA-MB-231 (subclone 2LMP), T47D, and MDA-MB-435 breast cancer cell lines. Racemic gossypol, apogossypol, apogossypolone, (+)-apogossypol, (−)-apogossypol, and tetra-acetyl apogossypolone (Formula VIII) were tested as described above.

The target of series [3] is T2, human Mcl-1 protein (amino acids 171-327) (Homo sapiens, UniProt Q07820).
T2 construct: The fragment encoding amino acids 171-327 was cloned into the pHis-TEV vector; 8xHis (N); made in house; host or cells: E. coli BL21(DE3)
Put plainly: Fluorescence polarization binding assay for the Mcl-1 protein (Flu-Bid-21 probe). A general note: In fluorescence polarisation assays a small probe gives low polarisation when free and higher when bound to something large.

Series [4] is described as follows: Storage stability of the sample. Particulars: stored at room temperature for several weeks without the protection of nitrogen. It counts as physicochemical.
The nature of series [5]: Maximal tolerated dose (MTD) in mice. It counts as in vivo. Particulars: for MTD: mouse, in vivo. How it is done:
To confirm this prediction, the maximal tolerated dose (MTD) of apogossypolone and (−)-gossypol was evaluated in mice using two different routes of administrations (oral and intravenous). For oral administration (oral gavage 5 days/week), the MTD of apogossypolone was above 240 mg/kg while the MTD for (−)-gossypol was about 50 mg/kg. For intravenous administration (every other day and 3 days/week), the MTD of apogossypolone was about 80 mg/kg while the MTD for (−)-gossypol was about 10 mg/kg. In both routes of administration, the MTD of apogossypolone was 8-times better than (−)-gossypol.

Series [6] relates to MDA-MB-435 breast cancer cell line. Put plainly: Cell growth inhibition, MDA-MB-435. The class given is cell-based, human. How it is done: as §1, §2
The subject of series [7] is T47D breast cancer cell line. Put plainly: Cell growth inhibition, T47D. The class given is cell-based, human. How it is done:
as §1, §2

Series [8] deals with LnCap prostate cancer cell line. Put plainly: Inhibition of cell growth, MTT assay, LnCap. It counts as cell-based. Particulars: Homo sapiens, LNCaP, read-out: IC50, inhibition of cell growth. How it is done:
as §1

Where only a bound is given, the exact number is not on record here.

T2 sequence (Q07820 171-327): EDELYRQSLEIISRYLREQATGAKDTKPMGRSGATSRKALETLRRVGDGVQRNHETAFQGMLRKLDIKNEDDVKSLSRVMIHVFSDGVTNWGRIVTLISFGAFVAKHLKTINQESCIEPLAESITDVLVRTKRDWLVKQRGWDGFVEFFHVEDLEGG
T1 sequence (Q07817 1-209 limits assumed): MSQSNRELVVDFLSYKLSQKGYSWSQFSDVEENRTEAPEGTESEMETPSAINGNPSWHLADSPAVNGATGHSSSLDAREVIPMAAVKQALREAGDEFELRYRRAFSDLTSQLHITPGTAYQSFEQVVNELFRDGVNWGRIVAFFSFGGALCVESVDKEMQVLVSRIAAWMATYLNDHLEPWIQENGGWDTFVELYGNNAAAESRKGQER
Chain of recombinant human Bcl-2 (P10415 92-205 limits assumed): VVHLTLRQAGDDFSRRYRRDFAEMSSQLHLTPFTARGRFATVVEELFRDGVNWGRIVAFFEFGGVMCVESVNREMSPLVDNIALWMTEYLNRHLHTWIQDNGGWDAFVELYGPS

With `CC1=C(C2=C(C)C(=O)c3c(cc(O)c(O)c3C(C)C)C2=O)C(=O)c2cc(O)c(O)c(C(C)C)c2C1=O` (racemic) [apogossypolone, 6,7,6′,7′-Tetrahydroxy-5,5′-diisopropyl-3,3′-dimethyl-[2,2′]binaphthalenyl-1,4,1′,4′-tetraone], the figures for the Ki (at recombinant human Bcl-2; on recombinant human Bcl-xL; in series [3]) were 76 nM, 1270 nM and 51 ± 20 nM, respectively. Also, the complete tumor regression entry in the series with PC-3 xenografts (apogossypolone 200 mg/kg p.o. plus X-ray radiation 2 Gy q.d. 5×3 weeks) is listed as “seven out of ten”; in the series with PC-3 xenografts (apogossypolone alone, 200 mg/kg p.o.), “zero out of ten”. In addition, the “effect on the tumors” value in the series with PC-3 xenografts (apogossypolone alone, 200 mg/kg p.o. q.d. 5×4 weeks) is “limited effect”. Besides, the “enhancement of radiation-mediated tumor inhibition” value with PC-3 xenografts (combination with X-ray radiation, P<0.0001, two-way ANOVA, n=10) is “significantly enhanced”. For the same compound, the 50% inhibitory concentration (IC50) (usually the concentration at which inhibition is half-maximal) in [1] (Homo sapiens, PC-3, read-out: IC50, inhibition of cell growth) was 2200 nM; in series [2] (Homo sapiens, MDA-MB-231, read-out: IC50 (μM) MDA-MB-231), 1.27 µM; in [6] (Homo sapiens, MDA-MB-435, read-out: IC50 (μM) MDA-MB-435), 4.82 µM; in series [7] (Homo sapiens, T47D, read-out: IC50 (μM) T47D), 9.26 µM; in series [8], 1300 nM. Besides, in series [1] (PC-3 cell line, 3-5 independent experiments), the “potency relative to (−)-gossypol in inhibition of cell growth” value is reported as 3-4 times. Moreover, the results for the “fold more potent than gossypol” value in series [2] (MDA-MB-231 cell line), in series [6] (MDA-MB-435 cell line) and in series [7] (T47D cell line) were “about 9 fold”, “about 2 fold” and “about 2 fold”, respectively. Moreover, the “fold better binding affinity compared with (−)-gossypol” value in series [3] (Mcl-1) is listed as 3.5 fold. Moreover, in series [4], the decomposition on storage entry is “no decomposition was detected”. In series [5] (both routes of administration), the “MTD relative to (−)-gossypol” value turned out to be 8 times. Besides, the maximum tolerated dose (MTD) (as a rule, the highest dose tested that stayed within the study's limit of toxicity) is around 80 mg/kg in [5] (intravenous, every other day and 3 days/week); above 240 mg/kg in series [5] (oral gavage 5 days/week).
